pIC50: −log10 of the molar value.
Target: T1, cyclin D1/cdk 4 enzyme (Homo sapiens, UniProt P11802)
T1 construct: made in house; host or cells: Sf9 insect cells, recombinant baculovirus
Assay: CDK4 ELISA kinase assay (phospho-Rb ser 795 detection)
Assay type: biochemical
Details: In Vitro Enzyme Assay, cyclin D1/cdk 4, read-out: CDK4 IC50
Procedure: • 1. High-binding ELISA microtiter plates (Costar) were coated with 40 μl of the kinase substrate (GST fusion of C-terminal fragment of the retinoblastoma susceptibility gene product) diluted to 10 μg/ml in tris-buffered saline (TBS), overnight at 4° C. • 2. Non-specific binding sites were blocked for 1 hour at 4° C. with Superblock in TBS (Pierce), and the plates rinsed with water. • 3. For the screen, 1.5 μl of test compound (200 μg/ml stock in 20% DMSO/20 mM HEPES, pH 7.5) was added to each well. Final dose of the test compound in the assay was 10 ug/ml. […] The kinase reaction (30 μl) was dispensed into each well. Reactions contained 200 μM ATP, 0.5 mg/ml bovine serum albumin (BSA; Sigma), and 0.5 μl partially purified cyclin D1/cdk 4 enzyme*. The enzyme complex is expressed in insect cells (Sf9) infected with recombinant baculovirus and partially purified using ammonium sulfate fractionation. Reaction volumes were adjusted to 30 μl with kinase assay buffer (50 mM HEPES, pH 7.5, 10 mM MgCl2, 5% glycerol, 10 mM 2-mercaptoethanol). • *: For CDK2 assay, 1.0 μl cyclin E/CDK2 enzyme (diluted 1:1000 in kinase assay buffer) was used. The enzyme is isolated from insect cells (Sf9) infected with recombinant baculovirus and partially purified using ammonium sulfate fractionation. For CDK1 assay, 0.08 μl cyclin B/CDK1 enzyme [New England BioLabs; the enzyme is isolated from insect cells (Sf9) infected with recombinant baculovirus carrying human cdc 2 and human cyclin B] was used.
[…] • 5. Plates were incubated at 30° C. for 1 hour. • 6. The reaction mixture was removed by aspiration and replaced with 250 μl TBS containing 0.1% Tween-20 and 5% nonfat dry milk (blocking buffer). The plates were incubated at 4° C. for 1 hour. • 7. The blocking buffer was removed and replaced with 50 μl of the primary antibody [anti-phospho-Rb ser 795 (New England BioLabs) diluted 1:1000 in blocking buffer]. Incubation was at 4° C. for 16-20 hours. • 8. The wells were rinsed 3 times with 250 μl of TBS containing 0.1% Tween-20 followed by the addition of 50 μl of secondary antibody [anti-rabbit IgG conjugated to horseradish peroxidase (Amersham Life Science) diluted 1:1000 in blocking buffer]. • 9. After a 1 hour incubation at room temperature, the wells were rinsed 3 times with 250 μl of TBS/0.1% Tween 20. • 10. TMB (3,3′,5,5′-tetramethylbenzidine dihydrochloride) substrate solution (100 μl; Pierce) was added to each well and the color development reaction allowed to proceed 5-10 minutes at room temperature with shaking. The reaction was stopped by the addition of 2N sulfuric acid (100 μl) and the absorbance values read at 450 nm in a microplate reader (Molecular Devices). Analysis of Results: • 1. The percentage of the absorbance value in wells containing the test compound relative to control wells (no test agent) was determined. • 2. IC50 values of selected compounds were determined from inhibition curves, after subtracting background values (no substrate).

T1 sequence (P11802 whole entry, species assumed): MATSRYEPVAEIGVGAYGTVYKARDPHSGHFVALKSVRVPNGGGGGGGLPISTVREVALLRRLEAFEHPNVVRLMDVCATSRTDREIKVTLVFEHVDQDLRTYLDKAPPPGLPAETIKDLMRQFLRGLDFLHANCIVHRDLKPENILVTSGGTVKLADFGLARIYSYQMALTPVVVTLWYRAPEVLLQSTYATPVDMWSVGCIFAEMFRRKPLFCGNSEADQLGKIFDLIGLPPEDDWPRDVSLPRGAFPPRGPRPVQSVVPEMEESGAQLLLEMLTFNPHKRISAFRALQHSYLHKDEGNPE
T1 sequence (P24385 whole entry partner, species assumed): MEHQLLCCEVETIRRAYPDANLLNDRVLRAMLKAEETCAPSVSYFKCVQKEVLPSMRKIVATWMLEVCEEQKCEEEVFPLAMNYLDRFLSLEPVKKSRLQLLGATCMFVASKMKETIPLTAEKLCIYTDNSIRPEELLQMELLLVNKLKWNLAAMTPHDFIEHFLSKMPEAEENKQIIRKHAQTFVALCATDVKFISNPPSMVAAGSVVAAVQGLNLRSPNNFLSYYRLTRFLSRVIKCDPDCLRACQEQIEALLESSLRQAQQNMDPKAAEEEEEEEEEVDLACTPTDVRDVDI

Question: How did the pIC50 turn out when N#CCc1ccc(NC=C2C(=O)NC(=O)c3ccc(-c4cccc(Cl)c4)cc32)cc1 [Example 713, (4-{[6-(3-Chloro-phenyl)-1,3-dioxo-2,3-dihydro-1H-isoquinolin-4-ylidenemethyl]-amino}-phenyl)-acetonitrile] was run?
Answer: 4.89

Question: How did the pIC50 turn out when O=C1NC(=O)c2ccccc2C1=CNCc1ccc(NS(=O)(=O)Cc2ccccc2)cc1 [Example 590, N-(4{[(1,3-Dioxo-2,3-dihydro-1H-isoquinolin-4-ylidenemethyl)-amino]-methyl}-phenyl)-C-phenyl-methanesulfonamide] was run?
Answer: 4.41

Question: How did the pIC50 turn out when Cc1ccccc1-c1ccc2c(c1)C(=CNc1ccc(CC#N)cc1)C(=O)NC2=O [Example 717, {4-[(1,3-Dioxo-6-o-tolyl-2,3-dihydro-1H-isoquinolin-4-ylidenemethyl)-amino]-phenyl}-acetonitrile] was run?
Answer: 4.88

Question: How did the pIC50 turn out when O=C1NC(=O)c2ccccc2C1=CNc1ccc(CNS(=O)(=O)CC(F)(F)F)cc1 [Example 605, 2,2,2-Trifluoro-ethanesulfonic acid 4-[(1,3-dioxo-2,3-dihydro-1H-isoquinolin-4-ylidenemethyl)-amino]-benzylamide] was run?
Answer: 4.66

Question: How did the pIC50 turn out when CN1CCN(c2ccc(NC=C3C(=O)NC(=O)c4ccc(-c5cccc(N)c5)cc43)cc2)CC1 [Example 810, 6-(3-Amino-phenyl)-4-{[4-(4-methyl-piperazin-1-yl)-phenylamino]-methylene}-4H-isoquinoline-1,3-dione] was run?
Answer: 5.56

Question: How did the pIC50 turn out when CCCN(CCC)Cc1ccc(NC=C2C(=O)NC(=O)c3ccccc32)cc1 [Example 614, 4-[(4-Dipropylaminomethyl-phenylamino)-methylene]-4H-isoquinoline-1,3-dione] was run?
Answer: 4.60

Question: Cc1nnc(NS(=O)(=O)c2ccc(NC=C3C(=O)NC(=O)c4ccccc43)cc2)s1 [Example 549, 4-[(1,3-Dioxo-2,3-dihydro-1H-isoquinolin-4-ylidenemethyl)-amino]-N-(5-methyl-[1,3,4]thiadiazol-2-yl)-benzenesulfonamide] was tested. Which pIC50 did it give?
Answer: 4.40

Question: With O=C1NC(=O)c2ccccc2C1=CNCc1cccc(NCC(F)(F)F)c1 [Example 603, 4-{[3-(2,2,2-Trifluoro-ethylamino)-benzylamino]-methylene}-4H-isoquinoline-1,3-dione] as the molecule, how does the pIC50 read?
Answer: 4.32

Question: How did the pIC50 turn out when CN1CCN(c2ccc(NC=C3C(=O)NC(=O)c4ccc(-c5cccc(Cl)c5)cc43)cc2)CC1 [Example 690, 6-(3-Chloro-phenyl)-4-{[4-(4-methyl-piperazin-1-yl)-phenylamino]-methylene}-4H-isoquinoline-1,3-dione] was run?
Answer: 4.68

Question: With O=C1NC(=O)c2ccccc2C1=CNCc1cccc(NS(=O)(=O)CC(F)(F)F)c1 [Example 582, 2,2,2-Trifluoro-ethanesulfonic acid (3-{[(1,3-dioxo-2,3-dihydro-1H-isoquinolin-4-ylidenemethyl)-amino]-methyl}-phenyl)-amide] as the molecule, how does the pIC50 read?
Answer: 5.02

Question: How did the pIC50 turn out when N#CCc1ccc(NC=C2C(=O)NC(=O)c3ccc(-c4ccc(C(F)(F)F)cc4)cc32)cc1 [Example 709, (4-{[1,3-Dioxo-6-(4-trifluoromethyl-phenyl)-2,3-dihydro-1H-isoquinolin-4-ylidenemethyl]-amino}-phenyl)-acetonitrile] was run?
Answer: 4.41

Question: NS(=O)(=O)c1ccc(CNC=C2C(=O)NC(=O)c3ccc(-c4ccc(C(=O)O)cc4)cc32)cc1 [Example 741, 4-{1,3-Dioxo-4-[(4-sulfamoyl-benzylamino)-methylene]-1,2,3,4-tetrahydro-isoquinolin-6-yl}-benzoic acid] was tested. Which pIC50 did it give?
Answer: 5.64

Question: How did the pIC50 turn out when O=C1NC(=O)c2ccccc2C1=CNc1cccc2c(O)cccc12 [Example 619, 4-[(5-Hydroxy-naphthalen-1-ylamino)-methylene]-4H-isoquinoline-1,3-dione] was run?
Answer: 4.84

Question: With CCS(=O)(=O)NCc1ccc(N/C=C2\C(=O)NC(=O)c3ccccc32)cc1 [Example 613, Ethanesulfonic acid 4-[(1,3-dioxo-2,3-dihydro-1H-isoquinolin-4-ylidenemethyl)-amino]-benzylamide] as the molecule, how does the pIC50 read?
Answer: 4.48

Question: CCCS(=O)(=O)Nc1cccc(CNC=C2C(=O)NC(=O)c3ccccc32)c1 [Example 584, Propane-1-sulfonic acid (3-{[(1,3-dioxo-2,3-dihydro-1H-isoquinolin-4-ylidenemethyl)-amino]-methyl}-phenyl)-amide] was tested. Which pIC50 did it give?
Answer: 4.71

Question: O=C1NC(=O)c2ccccc2C1=CNCc1cccc(NC(=O)C2CCC2)c1 [Example 587, Cyclobutanecarboxylic acid (3-{[(1,3-dioxo-2,3-dihydro-1H-isoquinolin-4-ylidenemethyl)-amino]-methyl}-phenyl)-amide] was tested. Which pIC50 did it give?
Answer: 4.36

Question: NS(=O)(=O)c1ccc(CNC=C2C(=O)NC(=O)c3ccc(-c4ccc(C=CC(=O)O)cc4)cc32)cc1 [Example 759, 3-(4-{1,3-Dioxo-4-[(4-sulfamoyl-benzylamino)-methylene]-1,2,3,4-tetrahydro-isoquinolin-6-yl}-phenyl)-acrylic acid] was tested. Which pIC50 did it give?
Answer: 5.77

Question: CC(C)c1ccc(-c2ccc3c(c2)C(=CNCc2ccc(S(N)(=O)=O)cc2)C(=O)NC3=O)cc1 [Example 761, 4-({[6-(4-Isopropyl-phenyl)-1,3-dioxo-2,3-dihydro-1H-isoquinolin-4-ylidenemethyl]-amino}-methyl)-benzenesulfonamide] was tested. Which pIC50 did it give?
Answer: 4.74

Question: How did the pIC50 turn out when O=C1NC(=O)c2ccccc2C1=CNc1ccc(O)cc1 [Example 559, 4-[(4-Hydroxy-phenylamino)-methylene]-4H-isoquinoline-1,3-dione] was run?
Answer: 4.71

Question: How did the pIC50 turn out when COc1ccccc1-c1ccc2c(c1)C(=CNc1ccc(N3CCN(C)CC3)cc1)C(=O)NC2=O [Example 683, 6-(2-Methoxy-phenyl)-4-{[4-(4-methyl-piperazin-1-yl)-phenylamino]-methylene}-4H-isoquinoline-1,3-dione] was run?
Answer: 4.48

Question: CN1CCN(c2ccc(NC=C3C(=O)NC(=O)c4ccc(-c5ccc6c(c5)OCO6)cc43)cc2)CC1 [Example 806, 6-Benzo[1,3]dioxol-5-yl-4-{[4-(4-methyl-piperazin-1-yl)-phenylamino]-methylene}-4H-isoquinoline-1,3-dione] was tested. Which pIC50 did it give?
Answer: 5.68

Question: How did the pIC50 turn out when CC(=O)N(C)c1ccc(NC=C2C(=O)NC(=O)c3ccccc32)cc1 [Example 554, N-{4-[(1,3-Dioxo-2,3-dihydro-1H-isoquinolin-4-ylidenemethyl)-amino]-phenyl}-N-methyl-acetamide] was run?
Answer: 4.44

Question: With O=C1NC(=O)c2ccccc2C1=CNCc1ccc(NS(=O)(=O)c2cccs2)cc1 [Example 588, Thiophene-2-sulfonic acid (4-{[(1,3-dioxo-2,3-dihydro-1H-isoquinolin-4-ylidenemethyl)-amino]-methyl}-phenyl)-amide] as the molecule, how does the pIC50 read?
Answer: 4.43

Question: CCS(=O)(=O)Nc1cccc(CNC=C2C(=O)NC(=O)c3ccccc32)c1 [Example 583, Ethanesulfonic acid (3-{[(1,3-dioxo-2,3-dihydro-1H-isoquinolin-4-ylidenemethyl)-amino]-methyl}-phenyl)-amide] was tested. Which pIC50 did it give?
Answer: 4.75

Question: NS(=O)(=O)c1ccc(CNC=C2C(=O)NC(=O)c3ccc(-c4cccc5cccnc45)cc32)cc1 [Example 633, 4-{[(1,3-Dioxo-6-quinolin-8-yl-2,3-dihydro-1H-isoquinolin-4-ylidenemethyl)-amino]-methyl}-benzenesulfonamide] was tested. Which pIC50 did it give?
Answer: 4.49

Question: How did the pIC50 turn out when O=C1NC(=O)c2ccccc2C1=CNc1cc(Cl)c([N+](=O)[O-])cc1O [Example 570, 4-[(5-Chloro-2-hydroxy-4-nitro-phenylamino)-methylene]-4H-isoquinoline-1,3-dione] was run?
Answer: 4.66

Question: With CSc1ccc(-c2ccc3c(c2)C(=CNc2ccc(CC#N)cc2)C(=O)NC3=O)cc1 [Example 723, (4-{[6-(4-Methylsulfanyl-phenyl)-1,3-dioxo-2,3-dihydro-1H-isoquinolin-4-ylidenemethyl]-amino}-phenyl)-acetonitrile] as the molecule, how does the pIC50 read?
Answer: 4.91

Question: How did the pIC50 turn out when COCCN(C)Cc1ccc(N/C=C2\C(=O)NC(=O)c3ccccc32)cc1 [Example 616, 4-[(4-{[(2-Methoxy-ethyl)-methyl-amino]-methyl}-phenylamino)-methylene]-4H-isoquinoline-1,3-dione] was run?
Answer: 4.83

Source: US7713994B2 (Wyeth LLC, priority 2005, dated 2010)
